In series [1] the test system is 5L (AhR +/+) hepatoma cells. Description: Cell viability MTT assay, 5L cells. It counts as cell-based, mouse. The note with it: range of concentrations, 24 and 48 hr. (In general: Formazan colour is commonly taken as a measure of viable cells.)
The subject of series [2] is BP8 (AhR −/−) hepatoma cells. In words: Cell viability MTT assay, BP8 cells. It is filed as cell-based, mouse. The note with it: range of concentrations, 24 and 48 hr.
Series [3] has as its system 5L (AhR +/+) hepatoma cells. Description: FACS cell cycle analysis, 5L cells. It is filed as cell-based, mouse.
The next series relates to MAPKK. The note with it: Table 2, data from Hoessel et al. (1999); cited from earlier work.
For a further series, the system named is cAMP-dependent PK. The note with it: Table 2, data from Hoessel et al. (1999); cited from earlier work.
Another series has as its system cGMP-dependent PK. The note with it: Table 2, data from Hoessel et al. (1999); cited from earlier work.
A further series concerns the target CDK2/cyclin A (Homo sapiens, UniProt P24941). Details: made in house. The note with it: Hoessel et al. (1999); read-out: IC50 CDK2/cyclinA; cited from earlier work.
A further series addresses erk2 (Homo sapiens, UniProt P28482). Details: made in house. The note with it: Table 2, data from Hoessel et al. (1999); cited from earlier work.
The next series deals with protein kinase C α (Homo sapiens, UniProt P17252). Details: made in house. The note with it: Table 2, data from Hoessel et al. (1999); cited from earlier work.
A further series has as its target protein kinase C γ (Homo sapiens, UniProt P05129). Details: made in house. The note with it: Table 2, data from Hoessel et al. (1999); cited from earlier work.
For another series, the target named is T1, protein kinase C ε (Homo sapiens, UniProt Q02156).
T1 sequence (Q02156 1-737): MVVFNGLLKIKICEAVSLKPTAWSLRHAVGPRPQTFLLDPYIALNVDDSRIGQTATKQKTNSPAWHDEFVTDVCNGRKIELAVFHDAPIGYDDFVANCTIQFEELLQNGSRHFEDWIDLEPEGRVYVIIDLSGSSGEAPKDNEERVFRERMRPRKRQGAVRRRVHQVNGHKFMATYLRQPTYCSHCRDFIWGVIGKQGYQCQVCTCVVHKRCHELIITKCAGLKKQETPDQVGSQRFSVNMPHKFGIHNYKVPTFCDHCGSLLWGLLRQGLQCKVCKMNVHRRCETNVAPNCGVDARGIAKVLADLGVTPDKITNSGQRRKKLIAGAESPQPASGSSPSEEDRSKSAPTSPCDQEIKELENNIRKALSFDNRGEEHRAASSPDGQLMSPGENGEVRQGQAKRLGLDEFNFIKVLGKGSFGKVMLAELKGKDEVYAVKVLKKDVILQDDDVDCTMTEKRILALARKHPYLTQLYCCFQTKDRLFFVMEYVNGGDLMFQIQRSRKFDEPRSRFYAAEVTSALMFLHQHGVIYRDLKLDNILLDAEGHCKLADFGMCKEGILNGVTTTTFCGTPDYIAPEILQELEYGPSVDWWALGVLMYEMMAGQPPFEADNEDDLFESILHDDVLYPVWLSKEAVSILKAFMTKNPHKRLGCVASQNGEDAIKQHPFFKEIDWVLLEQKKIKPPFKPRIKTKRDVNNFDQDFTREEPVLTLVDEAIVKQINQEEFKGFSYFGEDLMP
Details: made in house. The note with it: Table 2, data from Hoessel et al. (1999); cited from earlier work.

For the next series, the target named is T2, protein kinase C ζ (Homo sapiens, UniProt Q05513).
T2 sequence (Q05513 1-592): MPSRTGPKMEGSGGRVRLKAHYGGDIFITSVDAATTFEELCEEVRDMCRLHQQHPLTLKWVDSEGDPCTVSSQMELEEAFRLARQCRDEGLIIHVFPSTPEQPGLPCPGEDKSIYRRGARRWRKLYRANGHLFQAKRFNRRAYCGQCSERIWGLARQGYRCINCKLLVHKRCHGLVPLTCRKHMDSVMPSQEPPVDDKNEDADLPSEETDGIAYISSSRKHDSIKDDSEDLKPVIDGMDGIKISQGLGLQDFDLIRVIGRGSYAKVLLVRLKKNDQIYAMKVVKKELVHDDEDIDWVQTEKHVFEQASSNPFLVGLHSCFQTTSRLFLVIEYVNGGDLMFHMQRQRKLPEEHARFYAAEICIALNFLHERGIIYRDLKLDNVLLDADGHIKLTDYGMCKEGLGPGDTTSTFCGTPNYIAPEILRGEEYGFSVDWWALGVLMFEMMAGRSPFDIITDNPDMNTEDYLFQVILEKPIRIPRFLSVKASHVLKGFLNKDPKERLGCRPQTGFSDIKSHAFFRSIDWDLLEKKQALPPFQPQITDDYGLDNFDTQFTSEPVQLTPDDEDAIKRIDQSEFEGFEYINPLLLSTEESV
Also on record: made in house. The note with it: Table 2, data from Hoessel et al. (1999); cited from earlier work.

A further series addresses AhR (Homo sapiens, UniProt P35869).

Each structure is given as a SMILES string. pEC50, pIC50: −log10 of the molar value.

Broadly, the pEC50 is the negative decadic logarithm of the EC50, by convention in mol/L.

erk2, sequence (P28482 whole entry, species assumed): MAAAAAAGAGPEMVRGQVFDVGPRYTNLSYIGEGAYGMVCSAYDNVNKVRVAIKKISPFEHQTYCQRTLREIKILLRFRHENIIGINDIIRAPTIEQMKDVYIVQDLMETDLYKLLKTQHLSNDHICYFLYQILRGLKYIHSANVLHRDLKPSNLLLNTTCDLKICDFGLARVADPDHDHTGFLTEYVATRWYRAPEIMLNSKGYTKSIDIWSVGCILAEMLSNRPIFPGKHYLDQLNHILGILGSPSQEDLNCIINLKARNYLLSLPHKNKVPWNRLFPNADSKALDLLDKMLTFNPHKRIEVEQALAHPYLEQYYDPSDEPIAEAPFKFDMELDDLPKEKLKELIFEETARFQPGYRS
AhR, sequence (P35869 11-848): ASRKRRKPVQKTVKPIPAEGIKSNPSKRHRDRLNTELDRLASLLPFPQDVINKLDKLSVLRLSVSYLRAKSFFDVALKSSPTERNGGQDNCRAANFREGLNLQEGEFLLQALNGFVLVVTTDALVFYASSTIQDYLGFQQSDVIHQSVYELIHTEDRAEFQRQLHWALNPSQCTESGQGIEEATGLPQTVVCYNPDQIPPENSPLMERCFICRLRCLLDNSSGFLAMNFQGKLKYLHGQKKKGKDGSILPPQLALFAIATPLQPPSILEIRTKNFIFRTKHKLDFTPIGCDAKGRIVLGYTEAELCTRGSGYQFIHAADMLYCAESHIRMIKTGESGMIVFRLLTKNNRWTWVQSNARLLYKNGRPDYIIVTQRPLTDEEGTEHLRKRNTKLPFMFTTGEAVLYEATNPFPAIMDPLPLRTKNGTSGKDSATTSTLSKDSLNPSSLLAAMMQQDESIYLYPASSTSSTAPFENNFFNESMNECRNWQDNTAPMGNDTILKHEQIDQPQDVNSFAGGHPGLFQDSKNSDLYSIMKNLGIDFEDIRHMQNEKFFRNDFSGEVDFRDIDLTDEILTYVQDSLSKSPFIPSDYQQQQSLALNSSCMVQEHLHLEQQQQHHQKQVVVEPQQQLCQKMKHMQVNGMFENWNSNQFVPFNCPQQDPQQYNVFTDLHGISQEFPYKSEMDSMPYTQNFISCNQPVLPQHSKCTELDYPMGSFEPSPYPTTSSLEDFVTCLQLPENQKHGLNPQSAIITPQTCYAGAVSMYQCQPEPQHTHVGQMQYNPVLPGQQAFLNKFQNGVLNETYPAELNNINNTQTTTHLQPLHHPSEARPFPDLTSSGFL
AhR, sequence (P27540 whole entry partner): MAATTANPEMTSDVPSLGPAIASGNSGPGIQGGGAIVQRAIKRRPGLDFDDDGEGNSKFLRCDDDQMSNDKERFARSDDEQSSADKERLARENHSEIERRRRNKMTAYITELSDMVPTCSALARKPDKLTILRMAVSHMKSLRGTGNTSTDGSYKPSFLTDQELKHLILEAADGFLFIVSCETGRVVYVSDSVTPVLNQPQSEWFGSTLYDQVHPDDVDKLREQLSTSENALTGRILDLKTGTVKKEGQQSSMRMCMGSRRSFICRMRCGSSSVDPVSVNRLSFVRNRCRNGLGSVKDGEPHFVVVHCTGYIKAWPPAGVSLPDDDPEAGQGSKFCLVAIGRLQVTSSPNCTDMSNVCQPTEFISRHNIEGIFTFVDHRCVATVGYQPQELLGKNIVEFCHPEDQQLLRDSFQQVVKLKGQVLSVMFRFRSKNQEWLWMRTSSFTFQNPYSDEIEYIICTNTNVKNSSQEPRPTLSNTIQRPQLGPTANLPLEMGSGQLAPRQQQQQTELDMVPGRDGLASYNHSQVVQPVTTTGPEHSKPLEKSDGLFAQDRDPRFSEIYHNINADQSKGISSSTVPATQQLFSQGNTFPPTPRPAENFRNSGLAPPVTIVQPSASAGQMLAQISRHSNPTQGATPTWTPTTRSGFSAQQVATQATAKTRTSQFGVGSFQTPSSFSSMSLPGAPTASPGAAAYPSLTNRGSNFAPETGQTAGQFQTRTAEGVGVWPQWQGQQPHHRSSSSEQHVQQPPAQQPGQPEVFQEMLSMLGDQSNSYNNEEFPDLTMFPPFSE

Turning to `O=C1Nc2ccccc2/C1=C1/Nc2ccccc2/C1=N\O` [7h, indirubin-3′-oxime], in series [1], the “survival of 5L cells (MTT)” value is “equally sensitive to IO and BIO”. Moreover, the “survival of BP8 cells (MTT)” value in series [2] is “equally sensitive to IO and BIO”. In addition, the “accumulation of 5L cells in G1 phase” value in series [3] is “modest (but detectable)”. Also, the pIC50 with MAPKK was < 4.00; with cAMP-dependent PK, 5.20; in the series with cGMP-dependent PK, 5.05; on CDK2/cyclin A, 6.36; at erk2 it was < 4.00; on protein kinase C α it was 4.57. The pIC50 on protein kinase C γ was 5.08; at protein kinase C ε it was 4.70; on protein kinase C ζ, < 4.00.
On to `CC(=O)ON=C1C(=C2C(=O)Nc3cc(Br)ccc32)Nc2ccccc21` [8a, 6-Bromoindirubin-3′-acetoxime], for which the negative-log EC50 (pEC50) at AhR is ≤ 7.00.

The values above are taken from patent publication US20070276025A1, “Indirubin-Type Compounds, Compositions, and Methods for Their Use” (priority 2003, published 2007).
